US4914204A, “4-Pentafluorophenoxypiperidines” (priority 1988, dated 1990)
Counter-ions that a name gives are not always drawn. Like-named read-outs stand apart in the source and are kept apart here.

Legend:
[1] = tested on: spontaneous hypertensive rat; test: antihypertensive activity, indirect tail cuff method; format: in vivo; conditions: 50 mg/kg p.o.; measured on third day
Experimental: The compounds of this invention are also useful as antihypertensive agents due to their ability to depress blood pressure in mammals. Antihypertensive activity is measured in the spontaneous hypertensive rat by the indirect tail cuff method described in "Methods in Pharmacology", A. Schwartz, Ed., Vol. I, Appleton-Century Crofts, New York, N.Y., 1971, p. 135. In this procedure a group of five animals is treated orally for three days with the test compound in relation to a control group of the same number. The drop in blood pressure is measured on the third day following administration. The antihypertensive activities of representative compounds, expressed as a decrease in mean arterial blood pressure (in mm Hg), are given in Table 3 along with the activity of a standard compound.

[2] = tested on: mice; test: metrazol lethality assay (MTZ), anticonvulsant activity; format: in vivo, mice (male, Charles River, CD-1)
[3] = tested on: mice; test: phenyl-p-benzoquinone writhing assay (analgesic activity); format: in vivo, mice (male, Charles River, CD-1); conditions: for % Inhibition of writhing: screening dose of 20 mg/kg, s.c.; for ED50: Mus musculus, sc, footnote 1 of Table 1, read-out: Analgesic Activity, ED50 (calculated dose effecting 50% inhibition of writhing)
Experimental: The procedure employed to determine analgetic utility is a modification of the phenyl-p-benzoquinone writhing assay in mice, a standard assay for analgesia [Proc. Soc. […] Pursuant to the modified procedure phenyl-p-benzoquinone (Eastman, 12.5 mg) is dissolved in 5 ml of 95% ethanol and the solution is diluted to a total volume of 100 ml with distilled water. The solution is administered to the subject mice intraperitoneally at a dose of 10 ml per kg of body weight. A characteristic "writhe" an inward rotation of one or more feet with twisting and turning of the trunk, drawing in of the abdominal wall, lordosis and arching of the back, is produced.
A total of 28 male mice (Charles River, CD-1), weighing 18 to 30 grams, are employed for a time response. The subject animals receive food and water ad libitum. Test compounds are dissolved in distilled water, or suspended in distilled water containing one drop of a suitable surfactant, such as Tween-80.
Four groups of five animals (20 animals) are given the test compound subcutaneously (s.c.) or orally (p.o.) at 15, 30, 45 and 60 minutes prior to administration of the phenyl-p-quinone. A control group (2 animals per group) receive an equal volume of the vehicle. After the administration of the phenyl-p-quinone, the mice are placed separately in one liter beakers, and after five minutes, are observed for ten minutes. The number of writhes for each animal is recorded. The following formula is used to compute the percent inhibition: [formula]
The time period with the greatest percent of inhibition is considered the peak time.

[4] = tested on: rats; test: L-5-hydroxytryptophan (5-HTP) potentiation assay (antidepressant activity); format: in vivo, male Wistar rats
Experimental: Antidepressant activity is determined by the L-5-hydroxytryptophan potentiation assay in rats described in Brit.
In the L-5-hydroxytryptophan potentiation assay groups of six male Wistar rats (150-200 grams each) are used. Pargyline hydrochloride is prepared and administered four hours before testing by subcutaneous injection at 75 mg/kg in 1% saline and a dosage volume of 1.0 ml/kg. Thirty minutes before testing, drugs are prepared and dosed using distilled water and, if insoluble, a suitable surfactant is added. Control groups receive vehicle. Drugs are routinely administered intraperitoneally at a dosage volume of 10 ml/kg. L-5-hydroxytryptophan (5-HTP) is prepared at 1.0 mg/kg in distilled water and is administered intraperioneally in volumes proportional to 10 ml/kg.
Potentiation is expressed as normalized percent potentiation relative to vehicle control. ED50 values (the calculated dose at which the test compound effects a 50% inhibition of continuous forelimb clonus) and 95% confidence limits are determined by linear analysis.

[5] = tested on: mice; test: tetrabenazine (TBZ) induced ptosis assay (antidepressant activity); format: in vivo, mice (male, Charles River, CD-1)
Experimental: In the tetrabenazine induced ptosis assay, male mice (Charles River, CD-1), weighing 20 to 39 g, are used in test groups of five animals. Test compounds are dissolved, or suspended with 1 drop of Tween-80, in distilled water and administered to the animals in volumes of 10 cc per kg of body weight. Tetrabenazine methanesulfonate (76.78% as the free base) is dissolved in distilled water and the concentration of the solution is adjusted so that the dose, administered intraperitoneally (i.p.) to the animals, is 40 mg of tetrabenazine base per kg of animal body weight.
The test compound is administered intraperitoneally (i.p.) or perorally (p.o.) to the subject animals, and the tetrabenazine solution is administered 30 minutes or 60 minutes, respectively, thereafter. Tetrabenazine solution and the solvent used to dissolve or suspend the test compounds are administered by the same route and at the same intervals as the test compounds to a control group.
The subject animals are placed in individual plastic containers (101/2"×8"×6") thirty (i.p.) and sixty minutes (p.o.) after administration of the tetrabenazine solution, and one minute thereafter, the animals are scored for ptosis on the following scale:
The total score for each group of 5 animals will therefore vary from 0 to 20; these scores are used as the indications of the activity of the test compound.
The vehicle-control group score is used as a determination of the validity of each test.
For calculation of the ED50 value of a test compound; i.e., the calculated dose at which the test compound effects a 50% inhibition of tetrabenazine-induced ptosis, four or five doses are administered, and only vehicle-control scores of 17 to 20 are acceptable. A linear-regression analysis is used to estimate ED50 values and 95% confidence limits.

[6] = Rattus norvegicus, ip; read-out: 5-HTP ED50
[7] = Mus musculus, ip, read-out: TBZ ED50
[8] = Rattus norvegicus, ip, read-out: 5-HTP ED50
[9] = Mus musculus, ip; read-out: TBZ ED50

Compound	% Inhibition of writhing [3]	ED50 [4, 6]	ED50 [5, 9]	other results
Fc1c(F)c(F)c(OC2(c3ccccc3)CCN(Cc3ccccc3)CC2)c(F)c1F [1-Benzyl-4-(2,3,4,5,6-pentafluorophenoxy)-4-phenyl piperidine]				SHR mm dec. in blood pressure (decrease in mean arterial blood pressure) [1]: 40 mm Hg
N#CN1CCC(Oc2c(F)c(F)c(F)c(F)c2F)(c2ccccc2)CC1 [1-Cyano-4-(2,3,4,5,6-pentafluorophenoxy)-4-phenyl piperidine]	52%			ED50 ([2]; Mus musculus, po): 55.2 mg/kg
Cl.Fc1ccc2c(CCCN3CCC(Oc4c(F)c(F)c(F)c(F)c4F)CC3)noc2c1 [1-[(6-Fluoro-1,2-benzisoxazol-3-yl)propyl]-4-(2,3,4,5,6-pentafluorophenoxy)piperidine hydrochloride]				SHR mm dec. in blood pressure (decrease in mean arterial blood pressure) [1]: 62 mm Hg
CP(C)(=O)CN1CCC(Oc2c(F)c(F)c(F)c(F)c2F)CC1 [1-[(Dimethylphosphinyl)methyl]-4-(2,3,4,5,6-pentafluorophenoxy)piperdine]		9.1 mg/kg		
CN1CCC(Oc2c(F)c(F)c(F)c(F)c2F)(c2ccccc2)CC1.Cl [1-methyl-4-(2,3,4,5,6-pentafluorophenoxy)-4-phenylpiperidine hydrochloride]				ED50 [5, 7]: 1.3 mg/kg; ED50 [4, 8]: 8.1 mg/kg
CN1CCC(Oc2c(F)c(F)c(F)c(F)c2F)CC1 [1-methyl-4-(2,3,4,5,6-pentafluorophenoxy)piperidine]		4.7 mg/kg	4.7 mg/kg	
COc1ccccc1N1CCN(CCCCN2CCC(Oc3c(F)c(F)c(F)c(F)c3F)CC2)CC1 [1-{4-[1-[4-(2-Methoxyphenyl)piperazin-1-yl]butyl]}-4-(2,3,4,5,6-pentafluorophenoxy)piperidine dioxalate]				ED50 [3]: 19 mg/kg
Fc1c(F)c(F)c(OC2(c3ccccc3)CCNCC2)c(F)c1F.O=C(O)/C=C\C(=O)O [4-(2,3,4,5,6-Pentafluorophenoxy)-4-phenylpiperidine maleate]		14.5 mg/kg	1 mg/kg	
Cl.Fc1c(F)c(F)c(OC2CCNCC2)c(F)c1F [4-(2,3,4,5,6-Pentafluorophenoxy)piperidine hydrochloride]				ED50 [3]: 20 mg/kg
CN1CCC(Oc2c(F)c(F)c(F)c(F)c2F)(c2ccccc2F)CC1.O=C(O)C(=O)O [4-(2-Fluorophenyl)-1-methyl-4-(2,3,4,5,6-pentafluorophenoxy) piperidine oxalate]				ED50 [5, 7]: 3.8 mg/kg
Fc1ccccc1C1(Oc2c(F)c(F)c(F)c(F)c2F)CCNCC1.O=C(O)/C=C\C(=O)O [4-(2-Fluorophenyl)-4-(2,3,4,5,6-pentafluorophenoxy)piperidine maleate]		< 20 mg/kg	6.4 mg/kg	
CN1CCC(Oc2c(F)c(F)c(F)c(F)c2F)(c2ccc(Cl)cc2)CC1.O=C(O)/C=C/C(=O)O [4-(4-Chlorophenyl)-1-methyl-4-(2,3,4,5,6-pentafluorophenoxy)p iperidine fumarate]				ED50 [5, 7]: 38.9 mg/kg; ED50 [4, 8]: 11.9 mg/kg
Fc1c(F)c(F)c(OC2(c3ccc(Cl)cc3)CCNCC2)c(F)c1F.O=C(O)/C=C/C(=O)O [4-(4-Chlorophenyl)-4-(2,3,4,5,6-pentafluorophenoxy)piperidine fumarate]	66%	37 mg/kg	20 mg/kg	
CN1CCC(Oc2c(F)c(F)c(F)c(F)c2F)(c2ccc(F)cc2)CC1.Cl [4-(4-Fluorophenyl)-1-methyl-4-(2,3,4,5,6-pentafluorophenoxy)p iperidine hydrochloride]	49%			ED50 [5, 7]: 5.4 mg/kg; ED50 [4, 8]: 7 mg/kg; Percent inhibition of Metrazol lethality ([2]; 30 mg/kg i.p., footnote 2 of Table 2): 80%
Cl.Fc1ccc(C2(Oc3c(F)c(F)c(F)c(F)c3F)CCNCC2)cc1 [4-(4-Fluorophenyl)-4-(2,3,4,5,6-pentafluorophenoxy)piperidine hydrochloride]	58%	< 10 mg/kg	4.8 mg/kg	
COc1ccc(C2(Oc3c(F)c(F)c(F)c(F)c3F)CCN(C)CC2)cc1.Cl [4-(4-Methoxyphenyl)-1-methyl-4-(2,3,4,5,6-pentafluorophenoxy) piperidine hydrochloride]	53%			
Cc1ccc(C2(Oc3c(F)c(F)c(F)c(F)c3F)CCNCC2)cc1.O=C(O)/C=C\C(=O)O [4-(4-Methylphenyl)-4-(2,3,4,5,6-pentafluorophenoxy)piperidine maleate]	56%	14.5 mg/kg	8.3 mg/kg	
Cc1ccc(C2(Oc3c(F)c(F)c(F)c(F)c3F)CCN(C)CC2)cc1 [(4-(4-Methylphenyl)-1-methyl-4-(2,3,4,5,6-pentafluorophenoxy)piperidine hydrochloride]				ED50 [5, 7]: 7 mg/kg
CN(C)CCC=C1c2ccccc2CCc2ccccc21 [amitriptyline, reference compound]		7.1 mg/kg	1.5 mg/kg	
N=C(N)NCCN1CCCCCCC1 [guanethidine, reference compound]				SHR mm dec. in blood pressure (decrease in mean arterial blood pressure) [1]: 20 mm Hg
